The text below walks through data of PMC5467912, “Asymmetric regulation of quorum-sensing receptors drives autoinducer-specific gene expression programs in Vibrio cholerae” (PLoS Genetics, 2017).

This experiment has as its target T1, CqsS (Vibrio cholerae serotype O1, UniProt Q9KM66).
T1 construct: endogenous in cells; host or cells: V. cholerae WN1102 (ΔcqsA ΔluxQ/pBB1), derived from C6706str2
The experiment can be described thus: cell-based. As to conditions: for Light production: strain WN1102; for EC50: light production, reporter strain WN1102, 4 h at 30 °C.

“And” between values parts separate entries of the source, which are not always exact repeats. Equal values may be shown once.

T1 sequence (Q9KM66 whole entry, looked up): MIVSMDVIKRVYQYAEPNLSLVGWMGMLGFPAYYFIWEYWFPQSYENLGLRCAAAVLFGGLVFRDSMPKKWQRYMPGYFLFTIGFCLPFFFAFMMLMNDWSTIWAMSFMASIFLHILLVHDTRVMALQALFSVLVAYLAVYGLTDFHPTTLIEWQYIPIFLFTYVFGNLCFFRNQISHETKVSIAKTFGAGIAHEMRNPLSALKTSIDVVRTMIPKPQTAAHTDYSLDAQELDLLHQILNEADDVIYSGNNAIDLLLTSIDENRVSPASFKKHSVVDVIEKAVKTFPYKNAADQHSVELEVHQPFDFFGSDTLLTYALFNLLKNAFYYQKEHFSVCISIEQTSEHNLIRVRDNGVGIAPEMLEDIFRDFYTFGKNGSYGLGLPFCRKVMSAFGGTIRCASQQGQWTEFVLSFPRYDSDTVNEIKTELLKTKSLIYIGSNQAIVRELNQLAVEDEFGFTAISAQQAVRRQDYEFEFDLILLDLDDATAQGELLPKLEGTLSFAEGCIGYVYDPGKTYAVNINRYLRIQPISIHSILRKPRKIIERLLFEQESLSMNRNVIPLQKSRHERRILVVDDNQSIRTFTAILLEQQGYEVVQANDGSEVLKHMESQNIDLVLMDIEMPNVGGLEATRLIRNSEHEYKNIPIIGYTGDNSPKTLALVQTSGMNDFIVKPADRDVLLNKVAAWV

As for `O=C(Cc1ccc(-c2ccccn2)cc1)NC1CCCC1` [#9], the midpoint of the response, the EC50, lay at 1720 nM. Also, the Light production (Agonist 0.0119209 nM) was 8704.7 RLU and 9014.1 RLU and 7722.8 RLU. Further, the Light production (Agonist 0.0476837 nM) was 11317 RLU and 7830.7 RLU and 9751.2 RLU. In addition, the Light production (Agonist 0.190735 nM) is 10595 RLU and 11217 RLU and 6363.6 RLU. Under “Agonist 0.762939 nM”, the Light production was 13636 RLU and 11364 RLU and 8044.7 RLU. Also, where the note is “Agonist 3.05176 nM”, the Light production was 16879 RLU and 13647 RLU and 11676 RLU. Besides, under “Agonist 12.207 nM”, the Light production is 22994 RLU and 16264 RLU and 15148 RLU. Moreover, the Light production (Agonist 48.8281 nM) is 32335 RLU and 27200 RLU and 23011 RLU. Further, for the setting “Agonist 195.312 nM”, the Light production is 55190 RLU and 44311 RLU and 39030 RLU. The Light production (Agonist 781.25 nM) is 108075 RLU and 97949 RLU and 93072 RLU. Moreover, the Light production (Agonist 3125 nM) was 7362143 RLU and 7832704 RLU and 8085455 RLU. Also, the Light production (Agonist 12500 nM) is 55377500 RLU and 53818320 RLU and 53583010 RLU. Besides, under “Agonist 50000 nM”, the Light production is 93123590 RLU and 90629940 RLU and 93211830 RLU.

In turn, `CCCn1nnnc1NCc1ccc(N2CCCC2)cc1` [#3] came in with an EC50 of 14 nM. Moreover, where the note is “Agonist 0.0476837 nM”, the Light production was 13269 RLU and 14460 RLU and 11456 RLU. Moreover, the Light production (Agonist 0.190735 nM) is 18051 RLU and 20632 RLU and 16089 RLU. For the same compound, under “Agonist 0.762939 nM”, the Light production is 27556 RLU and 29263 RLU and 25287 RLU. Besides, for the setting “Agonist 3.05176 nM”, the Light production was 53410 RLU and 57320 RLU and 53409 RLU. The Light production (Agonist 12.207 nM) is 598613 RLU and 571778 RLU and 545574 RLU. Besides, under “Agonist 48.8281 nM”, the Light production is 17729790 RLU and 16188200 RLU and 18180520 RLU. Further, the Light production (Agonist 195.312 nM) was 52331460 RLU and 53359300 RLU and 52422750 RLU. Moreover, the Light production (Agonist 781.25 nM) is 72153380 RLU and 70458940 RLU and 74315090 RLU. For the same compound, the Light production (Agonist 3125 nM) is 80807740 RLU and 76653980 RLU and 72594050 RLU. In addition, under “Agonist 12500 nM”, the Light production was 69868890 RLU and 66115120 RLU and 65607710 RLU. Also, under “Agonist 50000 nM”, the Light production is 41204600 RLU and 38225840 RLU and 37314420 RLU. In addition, the “fold less potent than compound #1” value (EC50 comparison) is listed as “approximately 4 fold”.

For the compound `CCCn1nnnc1NCc1ccc(N(CC)CC)cc1` [#2], the midpoint of the response, the EC50, lay at 26 nM. Moreover, the Light production (Agonist 0.0119209 nM) is 10481 RLU and 11875 RLU and 20274 RLU. Further, the Light production (Agonist 0.0476837 nM) is 11765 RLU and 13923 RLU and 13822 RLU. Also, the Light production (Agonist 0.190735 nM) was 21584 RLU and 21176 RLU and 18763 RLU. For the same compound, the Light production (Agonist 0.762939 nM) was 32000 RLU and 26047 RLU and 22456 RLU. Moreover, the Light production (Agonist 3.05176 nM) is 51860 RLU and 50633 RLU and 45087 RLU. The Light production (Agonist 12.207 nM) was 312292 RLU and 263721 RLU and 253642 RLU. Also, the Light production (Agonist 48.8281 nM) is 5147778 RLU and 5005576 RLU and 4962410 RLU. The Light production (Agonist 195.312 nM) was 29151080 RLU and 28675780 RLU and 30844170 RLU. Also, where the note is “Agonist 781.25 nM”, the Light production was 78218700 RLU and 84853010 RLU and 92706410 RLU. In addition, where the note is “Agonist 3125 nM”, the Light production is 94808130 RLU and 116685800 RLU and 113209800 RLU. Besides, the Light production (Agonist 12500 nM) was 93694120 RLU and 114540600 RLU and 119989100 RLU. Further, the Light production (Agonist 50000 nM) is 88291390 RLU and 103481200 RLU and 109394800 RLU.

With `O=C(Cc1ccc(-c2ccccc2)cc1)NC1CCC1` [#8], a half-maximal response (EC50) required 53 nM. In addition, the Light production (Agonist 0.0119209 nM) is 17900 RLU and 10791 RLU and 14350 RLU. The Light production (Agonist 0.0476837 nM) is 11100 RLU and 15000 RLU and 11881 RLU. Further, the Light production (Agonist 0.190735 nM) was 26990 RLU and 16080 RLU and 18824 RLU. Also, the Light production (Agonist 0.762939 nM) was 24950 RLU and 23905 RLU. In addition, the Light production (Agonist 3.05176 nM) is 48627 RLU and 40000 RLU and 32706 RLU. The Light production (Agonist 12.207 nM) is 75176 RLU and 69890 RLU and 67191 RLU. For the same compound, the Light production (Agonist 48.8281 nM) was 1115870 RLU and 738497 RLU and 676886 RLU. The Light production (Agonist 195.312 nM) is 40840900 RLU and 39570670 RLU and 37676260 RLU. Also, the Light production (Agonist 781.25 nM) is 91907700 RLU and 100480500 RLU and 102019900 RLU. Moreover, the Light production (Agonist 3125 nM) is 92588910 RLU and 118830300 RLU and 113054700 RLU. Besides, for the setting “Agonist 12500 nM”, the Light production was 89613410 RLU and 99998040 RLU and 103728600 RLU. The Light production (Agonist 50000 nM) is 78185000 RLU and 81850050 RLU and 75936470 RLU.
